Measured values from patent publication US20250057807A1, “TREATING A DISEASE USING A […] ACTIVE INGREDIENT PRESENT IN A PSEUDO-TERNARY PHASE SYSTEM” (Hepion Pharmaceuticals, Inc., priority 2018, published 2025).
Where “and” joins values, the source holds several entries; their conditions need not be identical. Equal entries are not always repeated. Where a SMILES comes first, the peptide text is derived from it. [ ]: non-standard residue; d: D form. NMeThr(4R-Me,4-(CH2)6NHAc) = CN[C@H](C(=O)O)[C@H](O)[C@H](C)CCCCCCNC(C)=O; NMeL = CN[C@@H](CC(C)C)C(=O)O; NMeV = CN[C@H](C(=O)O)C(C)C; dNMeA = CN[C@H](C)C(=O)O; Abu = CC[C@H](N)C(=O)O

Tests used:
physchem = details: pH 7.4, aqueous buffer, kinetic from dmso stock
Procedure: (§1) The supernatant was collected, diluted 1:1 with methanol, and drug concentrations measured by HPLC (Agilent 1100 series, UV detection) relative to standard curves. The polar surface area and log P were calculated using Molinspiration Cheminformatics (V2018.10, USA). Plasma protein binding was determined by equilibrium dialysis assays. Drug plasma samples were prepared to achieve a final concentration of 5 μM in human blood plasma by 500-fold dilution of 2.5 mM DMSO-drug stocks. Plasma solutions (300 μl) and PBS, pH 7.4 (500 μl), were added to adjacent chambers of Rapid Equilibrium Dialysis units (Thermo Scientific; 8K MWCO). Plates were sealed with plastic film and shaken on an orbital shaker at 225 rpm at 37° C. for 4.5 hr. Plasma and PBS samples were collected, and drugs extracted with a zinc sulfate/methanol precipitation method. After centrifugation at 3,300 rpm for 10 min, soluble drugs in methanol supernatants were analyzed by Liquid Chromatography (LC) Electrospray Ionization (ESI) Mass Spectrometry (LC-ESI-MS) (Agilent 1100 series, Santa Clara, USA) and quantified relative to standard curves.

in vitro = details: human, pH 7.4
Procedure: as §1

clinical = assay: clinical; design: species or system human; details: in vivo
Procedure: The study was conducted at a clinical research facility for investigational medicines (Celerion, Arizona, USA) as part of a clinical Phase 1 single-ascending-dose (SAD) study and followed all FDA ethical guidelines. Patients were selected according to standardized inclusion/exclusion criteria for a Phase I SAD study. Healthy volunteers 18-55 years of age with no evidence of ongoing disease (as determined by the study investigator), or any use of nicotine (30 days prior to screening), or drugs of abuse (within the preceding 2 years), or use of chronic prescription medication (within 30 days), or acute prescription medication (within 14 days), or systemic over-the-counter medications including vitamins and herbal/natural supplements (within 7 days prior to the study dose) were enrolled in the study. The SMEDDS was dispensed (approximately 3 ml) into a 100 ml Gibco clear bottle and a 15-fold excess of filtered water (HPLC grade) was added. The mixture was swirled gently for 1-2 minutes until fully dispersed. The SMEDDS in-water dose was placed in the refrigerator and orally administered within 2 hours. […] Samples were immediately frozen and analyzed by LC-ESI-MS within 5 days. Briefly, whole blood samples were thawed and extracted using a zinc sulfate/methanol precipitation method.

in vivo = assay: in vivo; design: species or system Sprague Dawley rats; details: Sprague Dawley, rat, po, 30 mg/kg/day, liver level relative to whole blood
Procedure: SERIES 1 1/3/3/2/9 (Vitamin E/Maisine® CC/Propylene Glycol/Ethanol/Cremophor® RH40 (w/w/w/w/w)) CRV431 SMEDDS (50 mg/ml) was administered to Sprague Dawley rats (n=6) by oral gavage at 30 mg/kg/day for 7 days. At 12 hours post-dose on day 7, the animals were sacrificed and whole blood and livers were extracted and frozen. CRV431 was quantitated in whole blood using LC-ESI-MS (as for the human pharmacokinetic studies). For quantitation of CRV431 in liver, one gram samples of liver tissue were added to 9 ml of homogenizing solution (1% formic acid in water) and homogenized using a TissueLyser (Qiagen) at 30 Hz for 10 minutes. Aliquots were removed and analyzed by LC-ESI-MS as described above.

solubility (physchem): 115 µg/mL and 115 µM
fraction unbound at 4.5 hr, 5 μM (in vitro): 0.076
half-life (clinical; human): ~100 h
Cmax (clinical; human, po, 1 mg/kg): 334 ± 106 ng/mL
Cmax relative to Neoral® (clinical; 2.5 mg/kg): slightly greater than Neoral®
overall exposure (AUC) relative to Neoral® (clinical; 2.5 mg/kg): approximately 14 times
Kp (in vivo): 6.5
Compound: CC[C@@H]1NC(=O)[C@H]([C@H](O)[C@H](C)CCCCCCNC(C)=O)N(C)C(=O)[C@H](C(C)C)N(C)C(=O)[C@H](CC(C)C)N(C)C(=O)[C@H](CC(C)C)N(C)C(=O)[C@@H](C)NC(=O)[C@H](C)NC(=O)[C@H](CC(C)C)N(C)C(=O)[C@H](C(C)C)NC(=O)[C@H](CC(C)C)N(C)C(=O)[C@@H](C)N(C)C1=O [CRV431] (cyclo(A[dA][NMeL][NMeL][NMeV][NMeThr(4R-Me,4-(CH2)6NHAc)][Abu][dNMeA][NMeL]V[NMeL]))
